Measured values: publication PMC5024786 (Organic letters, 2015)

Biological target: T1, ACC deaminase (1-aminocyclopropane-1-carboxylic acid deaminase) (Pseudomonas sp. ACP, UniProt Q00740)
T1 sequence (Q00740 1-338): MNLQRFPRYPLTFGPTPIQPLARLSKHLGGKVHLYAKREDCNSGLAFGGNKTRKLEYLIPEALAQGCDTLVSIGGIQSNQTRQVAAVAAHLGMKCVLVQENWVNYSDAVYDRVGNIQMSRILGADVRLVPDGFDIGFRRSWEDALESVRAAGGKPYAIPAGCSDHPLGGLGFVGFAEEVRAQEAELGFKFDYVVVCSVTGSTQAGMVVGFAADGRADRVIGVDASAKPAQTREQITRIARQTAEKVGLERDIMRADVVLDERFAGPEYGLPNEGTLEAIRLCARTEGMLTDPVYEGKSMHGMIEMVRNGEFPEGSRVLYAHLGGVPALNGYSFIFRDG
Format: biochemical

NC1(C(=O)O)CC1(F)F (racemic) [compound 3, 1-Amino-2,2-difluorocyclopropane-1-carboxylic acid]
Ki: 120 ± 40 nM
